Read-outs that look alike come from different tables or passages of the source.
Columns and labels:
[1] = target: NP1 (wild-type nitrophorin 1) (Rhodnius prolixus, UniProt Q26239); test: UV/Vis ligand titration, equilibrium binding constants
[2] = test system: H60C_NP1 (His-60 to Cys-60 mutant of nitrophorin 1); test: biochemical; format: binding, Rhodnius prolixus; conditions: H60C_NP1 vs NP1
[3] = target: H60C_NP1 (His-60 to Cys-60 mutant of nitrophorin 1) (Rhodnius prolixus, UniProt Q26239, H82C); test: biochemical; format: binding
[4] = read-out: Dissociation constant (Kd) of ligand complex of NP1, 25°C, PBS buffer (50mM Na-phosphate, 100 mM NaCl, pH 7.4), UV/Vis titration

Sequence of NP1 (wild-type nitrophorin 1) (Q26239 24-207): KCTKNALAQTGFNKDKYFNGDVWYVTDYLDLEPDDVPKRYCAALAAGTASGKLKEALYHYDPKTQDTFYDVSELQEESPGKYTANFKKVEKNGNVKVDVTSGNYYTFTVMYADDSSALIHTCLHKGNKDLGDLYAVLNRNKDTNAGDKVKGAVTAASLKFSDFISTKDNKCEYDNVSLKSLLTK
Sequence of H60C_NP1 (His-60 to Cys-60 mutant of nitrophorin 1) (Rhodnius prolixus, UniProt Q26239, H82C) (Q26239 24-207 H82C): as the sequence (Q26239 24-207) above, with H59C counted along it

Compound	Kd [1, 4]	Kd [1]	Increase in dissociation constant for H60C_NP1 relative to NP1 [2]	Kd [3]	Kd ([1]; read-out: Dissociation constant (Kd) of ligand complex of NP1, 25°C, PBS buffer (50mM Na-phosphate, 100 mM NaCl, pH 7.4), UV/Vis titration, listed as imidazole)
CCCCn1ccnc1 [N-(n-Butyl)imidazole]	52 nM				
Cc1c[nH]cn1 [4-Methylimidazole]		182 nM	more than three orders of magnitude	560000 nM	
c1c[nH]cn1 [Imidazole]	255 nM				250 nM

Source: PMC2635096 (Journal of biological inorganic chemistry : JBIC : a …, 2008)
